Assay results reported in patent publication US20250186436A1 (4E Therapeutics, Inc., priority 2021, published 2025).
Several values for one entry are separate records, joined by “and”; a condition that tells them apart may be missing. Equal values may be shown once. Read-outs that look alike come from different tables or passages of the source.

Tests used:
[1] = PK study in male Sprague Dawley rats, IV 1 mg/kg and PO 10 mg/kg (Example 4); type: in vivo; details: for clearance: CLp; for Vd: Vss; for concentration at 24 h: plasma; for AUC(0-t): AUClast
[2] = Plasma and brain concentrations, brain to plasma ratio 24 hr after last of five 25 mg/kg PO doses (Example 8); type: in vivo; details: rats, 24 hr after the last of five 25 mg/kg PO doses; for concentration at 24 hr / concentration at 24 h: Sprague-Dawley, rat, oral, 25 mg/kg; for concentration at 24 h: male
Text: Table 24 provides plasma and brain concentrations at 24 hr after the last dose of five daily PO doses of 4ET-03-053.

[3] = Liver microsome stability; details: mouse, liver microsomes
P-gp (human MDR1, ABCB1) = test: MDCK-MDR1 permeability (blood-brain barrier permeability); details: dog
[4] = male SD rats, 1 mg/kg IV, individual animals, 1 mg/kg
[5] = male SD rats, 1 mg/kg IV, mean (n = 3)
[6] = male, Sprague Dawley, rat, in vivo, iv, 1 mg/kg
[7] = male, Sprague-Dawley, rat, in vivo, iv, 1 mg/kg
[8] = male, Sprague-Dawley, rat, in vivo, po, 10 mg/kg

Question: For `Cc1cc(Nc2cc(N)ncn2)c(=O)n2c1C(=O)NC21CCC2(CC2)CC1` [4ET-03-053, 6″-((6-Aminopyrimidin-4-yl)amino)-8″-methyl-2″H-dispiro[cyclopropane-1,1′-cyclohexane-4′,3″-imidazo[1,5-a]pyridine]-1″,5″-dione], which Clast [1, 4] is on record?
Answer: 302 ng/mL and 336 ng/mL

Question: What about the Co [1, 4] of the same molecule?
Answer: 8106 ng/mL and 7353 ng/mL and 7726 ng/mL

Question: What about the AUCinf/D [1, 5] of the same molecule?
Answer: 51472 kg·h/kL

Question: And the Co [1, 5]?
Answer: 7728 ng/mL

Question: And the Tlast [1, 5]?
Answer: 24.0 h

Question: What about the C0 [1, 6] of the same molecule?
Answer: 7730 ng/mL

Question: And the CLp [1, 6]?
Answer: 0.326 mL/min/kg

Question: And the clearance [1, 6]?
Answer: 0.33 mL/min/kg

Question: And the Vd [1, 6]?
Answer: 0.15 L/kg

Question: And the half-life ([1]; male, Sprague Dawley, rat, in vivo, iv, 1 mg/kg, t1/2)?
Answer: 6.36 h

Question: What about the AUC(0-inf) ([1]; male, Sprague Dawley, rat, in vivo, iv, 1 mg/kg, total systemic exposure (AUCinf)) of the same molecule?
Answer: 51500 ng·h/mL

Question: And the bioavailability ([1]; male, Sprague Dawley, rat, in vivo, po, 10 mg/kg)?
Answer: 42.9%

Question: And the Cmax ([1]; male, Sprague Dawley, rat, in vivo, po, 10 mg/kg, peak plasma concentration (Cmax))?
Answer: 17500 ng/mL

Question: What about the half-life ([1]; male, Sprague Dawley, rat, in vivo, po, 10 mg/kg, terminal half-life (t1/2)) of the same molecule?
Answer: 9.1 h

Question: What about the AUC(0-inf) ([1]; male, Sprague Dawley, rat, in vivo, po, 10 mg/kg, total systemic exposure (AUCinf)) of the same molecule?
Answer: 221000 ng·h/mL

Question: What about the concentration at 24 h ([1]; male, Sprague Dawley, rat, iv, 1 mg/kg, male SD rats, 1 mg/kg IV, at 24 h, mean (n = 3), read-out: Clast) of the same molecule?
Answer: 350 ng/mL

Question: What about the concentration at 24 h ([1]; male, Sprague Dawley, rat, po, 10 mg/kg, rats, 10 mg/kg PO, 10% DMA/PG, at 24 h, read-out: last measurable concentration) of the same molecule?
Answer: 2620 ng/mL

Question: And the AUC(0-t) [1, 7]?
Answer: 51100 ng·h/mL

Question: And the clearance [1, 7]?
Answer: 0.314 mL/min/kg

Question: And the MRT inf ([1]; male, Sprague-Dawley, rat, in vivo, iv, 1 mg/kg, MRTinf)?
Answer: 7.24 h

Question: And the Vd [1, 7]?
Answer: 0.136 L/kg

Question: And the AUC(0-inf) ([1]; male, Sprague-Dawley, rat, in vivo, iv, 1 mg/kg, male SD rats, 1 mg/kg IV, individual animals, read-out: AUCinf)?
Answer: 53100 ng·h/mL

Question: And the AUC(0-inf) ([1]; male, Sprague-Dawley, rat, in vivo, iv, 1 mg/kg, male SD rats, 1 mg/kg IV, mean (n = 3), read-out: AUCinf)?
Answer: 51500 ng·h/mL

Question: What about the half-life ([1]; male, Sprague-Dawley, rat, in vivo, iv, 1 mg/kg, t1/2) of the same molecule?
Answer: 6.63 h

Question: What about the Tmax [1, 8] of the same molecule?
Answer: 0.5 h

Question: And the AUC(0-t) [1, 8]?
Answer: 194000 ng·h/mL

Question: And the Cmax ([1]; male, Sprague-Dawley, rat, in vivo, po, 10 mg/kg, Cmax)?
Answer: 14400 ng/mL

Question: What about the half-life ([1]; male, Sprague-Dawley, rat, in vivo, po, 10 mg/kg, t1/2) of the same molecule?
Answer: 9.07 h

Question: And the concentration at 24 h ([1]; male, Sprague-Dawley, rat, iv, 1 mg/kg, male SD rats, 1 mg/kg IV, individual animals, read-out: Clast)?
Answer: 411 ng/mL

Question: And the concentration at 24 h ([1]; male, Sprague-Dawley, rat, po, 10 mg/kg, SD rats, single PO 10 mg/kg, 10% DMA/PG, individual animals, read-out: Clast)?
Answer: 2210 ng/mL

Question: What about the concentration at 24 h ([1]; male, Sprague-Dawley, rat, po, 10 mg/kg, SD rats, single PO 10 mg/kg, 10% DMA/PG, mean (n = 3), read-out: Clast) of the same molecule?
Answer: 2620 ng/mL

Question: What about the “clinical observation after dosing” value ([1]; rats, 1 mg/kg IV) of the same molecule?
Answer: lying on side and immobile with heavy breathing for about 10 min

Question: What about the “clinical observation after dosing” value ([1]; rats, 1 mg/kg IV, 1 mg/kg) of the same molecule?
Answer: The second animal died right after a slow IV injection

Question: What about the “time to peak plasma concentration” value ([1]; rats, 10 mg/kg PO, 10% DMA/PG) of the same molecule?
Answer: ≤ 30 m

Question: And the concentration at 24 hr ([2]; brain homogenate, brain homogenate, mean, read-out: Tissue Homogenate Conc., Mean)?
Answer: 122 ng/mL

Question: And the concentration at 24 hr ([2]; brain, brain, read-out: Mean Tissue)?
Answer: 489 ng/g

Question: What about the concentration at 24 h ([2]; brain homogenate, brain homogenate, individual animals (n = 3), read-out: Tissue Homogenate Conc.) of the same molecule?
Answer: 104 ng/mL

Question: And the concentration at 24 h ([2]; plasma, plasma, individual animals (n = 3), read-out: Plasma Conc.)?
Answer: 5340 ng/mL

Question: And the concentration at 24 h ([2]; plasma, plasma, mean, read-out: Plasma Conc., Mean)?
Answer: 5890 ng/mL

Question: And the “Tissue Homogenate Conc.” value ([2]; brain homogenate, individual animals (n = 3))?
Answer: 127 ng/mL and 136 ng/mL

Question: And the “Plasma Conc.” value ([2]; plasma, individual animals (n = 3))?
Answer: 6120 ng/mL and 6220 ng/mL

Question: What about the half-life [3] of the same molecule?
Answer: 3.8 h

Question: And the Papp A→B at 5 uM (P-gp (human MDR1, ABCB1))?
Answer: 63.3 ×10⁻⁶ cm/s

Question: And the Papp B→A at 5 uM (P-gp (human MDR1, ABCB1))?
Answer: 68.1 ×10⁻⁶ cm/s

Question: And the efflux ratio at 5 uM (P-gp (human MDR1, ABCB1))?
Answer: 1.1
